Data on 10 molecules can be found in patent US10329309B2, “3-(3H-imidazo[4,5-B]pyridin-2-yl)-1H-pyrazolo[4,3-B]pyridines and therapeutic uses thereof” (Samumed, LLC, priority 2015, dated 2019).

Where only a bound is given, the exact number is not on record here.

Common to all, as to assay type: cell-based
One assay deals with SW480 colon cancer cells. The assay is described as follows: Cell viability assay (CellTiter-Blue), four days. Particulars: Homo sapiens, 96 h; for EC50: CellTiter-Blue cell viability; for inhibition at 10 µM: read-out: percent inhibition at 10 μM (given for EC50 of >10 μM). The procedure:
Representative compounds were screened using the following assay procedure to assess the effect on cell viability as described below.
Each compound was dissolved in DMSO as a 10 mM stock and used to prepare compound source plates. Serial dilution (1:3, 8-point dose-response curves from 10 μM to 0.0045 μM) and compound transfer was performed using the ECHO 550 (Labcyte, Sunnyvale, Calif.) into 96-well clear bottom, black-walled plates (Corning-Costar).
Approximately 2×10^3 SW480 colon cancer cells were seeded into each well and allowed to incubate in the presence or absence of compound for four days at 37° C./5% CO2. Eight replicates of DMSO-treated cells served as controls and cells treated with compound were performed in duplicate.
After incubation, 20 μL of CellTiter-Blue (Promega) was added to each well allowed to incubate for approximately 3 hours. This reagent was a buffered solution which contains resazurin, metabolically active cells were able to reduce rezarurin (blue) into resorufin (pink) which was highly fluorescent. This measured fluorescence was used as a readout for cell viability.
After incubation, the plates were read at Ex 560 nm Em 590 nm (Cytation 3, BioTek). Dose-response curves were generated and EC50 concentration values were calculated using non-linear regression curve fit in the GraphPad Prism (San Diego, Calif.) or Dotmatics' Studies Software (Bishops Stortford, UK). For EC50 of >10 μM, the percent inhibition at 10 μM is provided.

Assay [1] relates to primary human fibroblasts derived from IPF patients (LL29 cells), α-smooth muscle actin (αSMA). Briefly: Inhibition of the fibrotic process: TGF-β1-treated primary human fibroblasts from IPF patients, αSMA staining. Particulars: Fibroblast, 96 h, 4 days; for EC50: LL29 fibroblasts from IPF patients, TGF-β1 20 ng/mL, inhibition of fibrotic process; for inhibition at 10 µM: LL29 fibroblasts, TGF-β1 treated, read-out: percent inhibition at 10 μM (given for EC50 of >10 μM). The text has this:
Representative compounds were screened using primary human fibroblasts (derived from IPF patients) treated with TGF-β1 to determine their ability to inhibit the fibrotic process.
Primary human fibroblasts derived from IPF patients (LL29 cells) [^1Xiaoqiu Liu, et. al., “Fibrotic Lung Fibroblasts Show Blunted Inhibition by cAMP Due to Deficient cAMP Response Element-Binding Protein Phosphorylation”, Journal of Pharmacology and Experimental Therapeutics (2005), 315(2), 678-687; ^2Watts, K. L., et. al., “RhoA signaling modulates cyclin D1 expression in human lung fibroblasts; implications for idiopathic pulmonary fibrosis”, Respiratory Research (2006), 7(1), 88] were obtained from American Type Culture Collection (ATCC) and expanded in F12 medium supplemented with 15% Fetal Bovine Serum and Penicillin/Streptomycin.
Each compound was dissolved in DMSO as a 10 mM stock and used to prepare compound source plates. Serial dilution (1:2, 11-point dose-response curves from 10 μM to 1.87 nM) and compound transfer was performed using the ECHO 550 (Labcyte, Sunnyvale, Calif.) into 384-well clear bottom assay plates (Greiner Bio-One) with appropriate DMSO backfill for a final DMSO concentration of 0.1%. LL29 cells are plated at 1,500 cells/well in 80 μL/well F12 medium supplemented with 1% Fetal Bovine Serum. One hour after addition of the cells, TGF-β1 (Peprotech; 20 ng/mL) was added to the plates to induce fibrosis (ref. 1 and 2 above). Wells treated with TGF-β1 and containing DMSO were used as controls. Cells were incubated at 37° C. and 5% CO2 for 4 days. Following incubation for 4 days, SYTOX green nucleic acid stain (Life Technologies [Thermo Fisher Scientific]) was added to the wells at a final concentration of 1 μM and incubated at room temperature for 30 min. Cells were then fixed using 4% formaldehyde (Electron Microscopy Sciences), washed 3 times with PBS followed by blocking and permeabilization using 3% Bovine Serum Albumin (BSA; Sigma) and 0.3% Triton X-100 (Sigma) in PBS. Cells were then stained with antibody specific to α-smooth muscle actin (αSMA; Abcam) (ref. 1 and 2 above) in 3% Bovine Serum Albumin (BSA; Sigma) and 0.3% Triton X-100 (Sigma) in PBS, and incubated overnight at 4° C. Cells were then washed 3 times with PBS, followed by incubation with Alexa Flor-647 conjugated secondary antibody (Life Technologies [Thermo Fisher Scientific]) and DAPI at room temperature for 1 hour. Cells were then washed 3 times with PBS and plates were sealed for imaging. αSMA staining was imaged by excitation at 630 nm and emission at 665 nm and quantified using the Compartmental Analysis program on the CellInsight CX5 (Thermo Scientific). Dead or apoptotic cells were excluded from analysis based on positive SYTOX green staining. % of total cells positive for αSMA were counted in each well and normalized to the average of 11 wells treated with TGF-β1 on the same plate using Dotmatics' Studies Software. The normalized averages (fold change over untreated) of 3 replicate wells for each compound concentration were used to create dose-responses curves and EC50 values were calculated using non-linear regression curve fit in the Dotmatics' Studies Software. For EC50 of >10 μM, the percent inhibition at 10 μM is provided.

In another assay the test system is IL-6 (THP-1 cells). The assay is described as follows: Inhibition of IL-6 in LPS-stimulated THP-1 monocytes (HTRF). Particulars: Homo sapiens; for EC50: LPS 500 ng/mL, IL-6 by HTRF; for inhibition at 10 µM: LPS stimulated, IL-6, at 10 μM, read-out: percent inhibition at 10 μM (given for EC50 of >10 μM). The procedure: Human monocyte cell line (THP-1 cells; Catalog # TIB-202, ATCC, Manassas, Va.) were cultured in Roswell Park Memorial Institute (RPMI) 1640 Medium (Catalog #21870-100, Buffalo, N.Y.) with 1% L-glutamine, 1% HEPES, 1% Sodium Pyruvate, 2% Sodium Bicarbonate supplemented with 100 units/mL penicillin, 50 μg/mL streptomycin, 2-mercaptoethanol (0.05 mM) [basal medium] and 10% fetal bovine serum (Catalog #16140089, Life Technologies, Carlsbad, Calif.) at 37° C. and 5% CO2.
THP-1 cells were cultured in basal media with 1% FBS for 24 hours before the start of the assay. Each compound was dissolved in DMSO as a 10 mM stock and used to prepare compound source plates. Serial dilution (1:3, 10-point dose-response curves starting from 10 μM) and compound transfer was performed using the ECHO 550 (Labcyte, Sunnyvale, Calif.) into 384-well white low volume assay plates (Greiner Bio-One) with appropriate DMSO backfill for a final DMSO concentration of 0.1%. THP-1 cells were plated at 5000 cells/well in the 384-well plates and incubated at 37° C. for 2 h. 500 ng/mL of LPS was added after 2 hours and cells were incubated for another 22 hours at 37° C. Plates were spun in a centrifuge for 1 minute at […] and a mixture of anti-IL6 XL665, and anti-IL6 Cryptate diluted in reconstitution buffer (Cisbio Inc.) was added to each well. Following incubation for 3 hrs at room temperature, Homogeneous Time-Resolved Fluorescence (HTRF) was measured using the Envision (Perkin Elmer) at 665 nm and […]. The ratio of fluorescence at 665 nm to 620 nm was used as a readout for IL6 quantification. All samples were processed in duplicate. Readings were normalized to DMSO treated cells and normalized activities were utilized for EC50 calculations using the dose-response log (inhibitor) vs. response -variable slope (four parameters) nonlinear regression feature available in GraphPad Prism 5.0 (or Dotmatics). For EC50 of >10 μM, the percent inhibition at 10 μM is provided.
Background: TR-FRET usually uses a lanthanide donor and a delayed reading to cut background.

For `CCC(=O)Nc1cncc(-c2ccc3[nH]nc(-c4nc5c(-c6cccc(F)c6)ccnc5[nH]4)c3n2)c1` [Compound 1, N-(5-(3-(7-(3-fluorophenyl)-3H-imidazo[4,5-b]pyridin-2-yl)-1H-pyrazolo [4,3-b]pyridin-5-yl)pyridin-3-yl)propionamide], the EC50 (in the assay on SW480 colon cancer cells; in assay [1]; in the assay with IL-6 (THP-1 cells)) was > 10000 nM each time. Also, the inhibition (commonly the change of the read-out against control, counted positive when it falls) at 10 µM is 19.9% in the assay on SW480 colon cancer cells, 3% in assay [1] and 3.5% in the assay on IL-6 (THP-1 cells).
As to `Fc1cccc(-c2ccnc3[nH]c(-c4n[nH]c5ccc(-c6ccncc6)nc45)nc23)c1` [Compound 18, 3-(7-(3-fluorophenyl)-3H-imidazo[4,5-b]pyridin-2-yl)-5-(pyridin-4-yl)-1H-pyrazolo[4,3-b]pyridine], the EC50 (with SW480 colon cancer cells; in assay [1]; in the assay on IL-6 (THP-1 cells)) was > 10000 nM in each case. For the same molecule, the inhibition at 10 µM was 0% in the assay with SW480 colon cancer cells, 21.4% in assay [1] and 18.4% in the assay with IL-6 (THP-1 cells).
`O=C(Nc1cncc(-c2ccc3[nH]nc(-c4nc5c(-c6cccc(F)c6)ccnc5[nH]4)c3n2)c1)C1CC1` [Compound 20, N-(5-(3-(7-(3-Fluorophenyl)-3H-imidazo[4,5-b]pyridin-2-yl)-1H-pyrazolo [4,3-b]pyridin-5-yl)pyridin-3-yl)cyclopropanecarboxamide]: the EC50 (in the assay on SW480 colon cancer cells; in assay [1]; with IL-6 (THP-1 cells)) was > 10000 nM in each case. The values for the inhibition at 10 µM (in the assay on SW480 colon cancer cells; in assay [1]; in the assay on IL-6 (THP-1 cells)) were 2.8%, 20.2% and 16%, respectively.
As to `Fc1cccc(-c2ccnc3[nH]c(-c4n[nH]c5ccc(-c6cncc(CN7CCC(F)(F)C7)c6)nc45)nc23)c1` [Compound 26, 5-(5-((3,3-Difluoropyrrolidin-1-yl)methyl)pyridin-3-yl)-3-(7-(3-fluorophenyl)-3H-imidazo[4,5-b]pyridin-2-yl)-1H-pyrazolo[4,3-b]pyridine], the EC50 – broadly, the concentration that produces a half-maximal response – in the assay on SW480 colon cancer cells is 409 nM; in assay [1] it was 344 nM; in the assay with IL-6 (THP-1 cells), 985 nM.
Take `CC(C)(C)C(=O)Nc1cncc(-c2ccc3[nH]nc(-c4nc5c(-c6ccc(F)cc6)ccnc5[nH]4)c3n2)c1` [Compound 36, N-(5-(3-(7-(4-fluorophenyl)-3H-imidazo[4,5-b]pyridin-2-yl)-1H-pyrazolo [4,3-b]pyridin-5-yl)pyridin-3-yl)pivalamide]: the figures for the EC50 (with SW480 colon cancer cells; in assay [1]; in the assay on IL-6 (THP-1 cells)) were > 10000 nM, 2560 nM and > 10000 nM, respectively. The inhibition at 10 µM amounted to 15% in the assay on SW480 colon cancer cells and 19.2% in the assay on IL-6 (THP-1 cells).
`Fc1ccc(-c2ccnc3[nH]c(-c4n[nH]c5ccc(-c6cncnc6)nc45)nc23)cc1` [Compound 55, 3-(7-(4-Fluorophenyl)-3H-imidazo[4,5-b]pyridin-2-yl)-5-(pyrimidin-5-yl)-1H-pyrazolo[4,3-b]pyridine]: the EC50 was 171 nM with SW480 colon cancer cells, 63 nM in assay [1] and > 10000 nM in the assay with IL-6 (THP-1 cells). Also, in the assay with IL-6 (THP-1 cells), the inhibition at 10 µM turned out to be 43.9%.
For the molecule `Nc1cncc(-c2ccc3[nH]nc(-c4nc5c(-c6ccccc6F)ccnc5[nH]4)c3n2)c1` [Compound 59, 5-(3-(7-(2-fluorophenyl)-3H-imidazo[4,5-b]pyridin-2-yl)-1H-pyrazolo[4,3-b]pyridin-5-yl)pyridin-3-amine], the results for the EC50 (in the assay with SW480 colon cancer cells; in assay [1]; in the assay with IL-6 (THP-1 cells)) were > 10000 nM, 2410 nM and 2120 nM, respectively. Besides, the inhibition at 10 µM with SW480 colon cancer cells stood at 21.5%.
On to `CC(C)C(=O)Nc1cncc(-c2ccc3[nH]nc(-c4nc5c(-c6ccccc6F)ccnc5[nH]4)c3n2)c1` [Compound 65, N-(5-(3-(7-(2-fluorophenyl)-3H-imidazo[4,5-b]pyridin-2-yl)-1H-pyrazolo [4,3-b]pyridin-5-yl)pyridin-3-yl)isobutyramide], for which the EC50 was > 10000 nM with SW480 colon cancer cells, > 10000 nM in assay [1] and 151 nM in the assay on IL-6 (THP-1 cells). In addition, the results for the inhibition at 10 µM (in the assay with SW480 colon cancer cells; in assay [1]) were 7.5% and 0%, respectively.
With `O=C(Nc1cncc(-c2ccc3[nH]nc(-c4nc5c(-c6ccccc6F)ccnc5[nH]4)c3n2)c1)C1CCCC1` [Compound 78, N-(5-(3-(7-(2-fluorophenyl)-3H-imidazo[4,5-b]pyridin-2-yl)-1H-pyrazolo [4,3-b]pyridin-5-yl)pyridin-3-yl)cyclopentanecarboxamide], the values for the EC50 (with SW480 colon cancer cells; in assay [1]; in the assay on IL-6 (THP-1 cells)) were > 10000 nM, 2830 nM and 7920 nM, respectively. In addition, in the assay on SW480 colon cancer cells, the inhibition at 10 µM stood at 12.3%.
For the molecule `CC(C)C(=O)Nc1cncc(-c2ccc3[nH]nc(-c4nc5c(-c6cccnc6)ccnc5[nH]4)c3n2)c1` [Compound 93, N-(5-(3-(7-(pyridin-3-yl)-3H-imidazo[4,5-b]pyridin-2-yl)-1H-pyrazolo[4,3-b]pyridin-5-yl)pyridin-3-yl)isobutyramide], the EC50 with SW480 colon cancer cells was > 10000 nM; in assay [1] it was > 10000 nM; in the assay on IL-6 (THP-1 cells) it was 984 nM. Moreover, the inhibition at 10 µM in the assay on SW480 colon cancer cells is 8.1%; in assay [1] it was 0%.
